Data on 17 molecules can be found in PubChem BioAssay (NCI).

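How tested: cells in 96-well plates exposed to compound for 48 hours at five concentrations. TGI is the concentration that stops growth completely.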

Among the test systems are COLO 205 colon; UACC-257 melanoma; A549 NSCLC; HOP-62 NSCLC; K-562 leukemia; RPMI-8226 leukemia; NCI-H460 lung; UO-31 renal; NCI-H226 lung.
Holding throughout (assay): NCI-60 cell line screen, 48 h

As to `O=c1cc(/C=C/c2ccccc2)c2ccc(O/C(=C\c3ccccc3)c3nc4ccccc4c(=O)o3)cc2o1`, the TGI with COLO 205 colon was 73.8 µM; with UACC-257 melanoma it was 98.4 µM; in the test with A549 NSCLC it was greater than 100 µM; in the test with HOP-62 NSCLC, 84.7 µM; in the test on K-562 leukemia, greater than 100 µM; with RPMI-8226 leukemia it was 60.3 µM. Also, the TGI in the test with NCI-H460 lung was greater than 100 µM.
As for `COc1cc(C2C(Cl)C(=O)N2NC(=O)c2ccccc2O)cc(OC)c1OC` (stereo unspecified), the TGI was 7.46 µM in the test with UACC-257 melanoma; greater than 10 µM with A549 NSCLC; greater than 10 µM in the test on K-562 leukemia; greater than 10 µM in the test with UO-31 renal; greater than 10 µM in the test with NCI-H226 lung; greater than 10 µM in the test with NCI-H460 lung.
On to `OCC1C2C=CC(O2)[C@H]1CO` (stereo partly specified), for which the TGI with COLO 205 colon, with UACC-257 melanoma, in the test on A549 NSCLC, in the test on HOP-62 NSCLC, in the test on UO-31 renal and in the test with NCI-H226 lung was greater than 100 µM throughout. Further, the TGI in the test on RPMI-8226 leukemia and in the test on NCI-H460 lung was greater than 100 µM each time.
As for `O=C1CCC(=O)C12CCc1ccccc12`, the TGI in the test on COLO 205 colon, with A549 NSCLC, with HOP-62 NSCLC, in the test with UO-31 renal and in the test with NCI-H460 lung was greater than 100 µM throughout.
For the molecule `COc1ccc(/C=C\c2cc(OC)c(OC(C)=O)c(OC)c2)cc1`, the TGI in the test on COLO 205 colon is greater than 100 µM; with UACC-257 melanoma, 95.1 µM; in the test with A549 NSCLC, 78 µM; in the test on HOP-62 NSCLC, 85.6 µM; in the test on K-562 leukemia, 31 µM; in the test with UO-31 renal, 50.1 µM. Also, the TGI is greater than 100 µM in the test with NCI-H226 lung and 85.7 µM with RPMI-8226 leukemia.
Take `CSc1nnc2n1-c1ccccc1SCC2`: the TGI with COLO 205 colon, in the test on UACC-257 melanoma, with A549 NSCLC, in the test with HOP-62 NSCLC, with K-562 leukemia and with UO-31 renal was greater than 100 µM in each case. For the same molecule, the TGI with NCI-H226 lung, in the test on RPMI-8226 leukemia and in the test on NCI-H460 lung was greater than 100 µM in each case.
As for `OC1/C(=C/c2ccccc2)CNC/C1=C\c1ccccc1` (stereo unspecified), the TGI in the test with COLO 205 colon, with UACC-257 melanoma, in the test with A549 NSCLC, in the test on HOP-62 NSCLC, in the test with UO-31 renal and in the test with RPMI-8226 leukemia was greater than 100 µM throughout. This molecule displayed a TGI in the test on NCI-H460 lung greater than 100 µM.
For `Fc1cccc(C2SCc3nc4ccccc4n32)c1` (stereo unspecified), the TGI was greater than 100 µM in the test with COLO 205 colon; 69.1 µM with UACC-257 melanoma; greater than 100 µM with A549 NSCLC; greater than 100 µM in the test with K-562 leukemia; greater than 100 µM in the test with UO-31 renal; greater than 100 µM in the test with NCI-H226 lung. For the same molecule, the TGI in the test with RPMI-8226 leukemia and in the test on NCI-H460 lung was greater than 100 µM throughout.
With `C[C@]12CC[C@H](O)CC1CCC[C@@H]2O` (stereo partly specified), the TGI with COLO 205 colon, with UACC-257 melanoma, with A549 NSCLC, with HOP-62 NSCLC, with K-562 leukemia and in the test on UO-31 renal was greater than 100 µM in each case. Besides, the TGI with RPMI-8226 leukemia and in the test on NCI-H460 lung was greater than 100 µM each time.
Regarding `CCn1cc(C(=O)O)c(=O)c2cc(F)c(N3CCNCC3)nc21`, the TGI with COLO 205 colon, with UACC-257 melanoma, in the test on A549 NSCLC, in the test on HOP-62 NSCLC, in the test on K-562 leukemia and with UO-31 renal was greater than 100 µM throughout. Besides, the TGI in the test with NCI-H226 lung, with RPMI-8226 leukemia and in the test with NCI-H460 lung was greater than 100 µM throughout.
Turning to `O=CN/C=C\c1cc(O)ccc1O`, the TGI with COLO 205 colon is 29.5 µM; with UACC-257 melanoma, 19.2 µM; in the test with A549 NSCLC it was greater than 100 µM; in the test on HOP-62 NSCLC, 60.2 µM; in the test on K-562 leukemia it was greater than 100 µM; in the test with UO-31 renal it was 29.1 µM. For the same molecule, the TGI is greater than 100 µM in the test with NCI-H226 lung, 44.6 µM in the test on RPMI-8226 leukemia and greater than 56.2 µM in the test with NCI-H460 lung.
With `Cn1c(=O)ccc2cc(C(=O)c3ccccc3)ccc21`, the TGI is greater than 100 µM in the test with COLO 205 colon; greater than 100 µM with A549 NSCLC; greater than 100 µM with HOP-62 NSCLC; greater than 100 µM in the test on K-562 leukemia; 99.7 µM in the test with NCI-H226 lung; greater than 100 µM in the test with RPMI-8226 leukemia. The TGI in the test on NCI-H460 lung was greater than 100 µM.
For `CN=C(NC#N)NCc1ccccc1`, the TGI in the test with COLO 205 colon, in the test on UACC-257 melanoma, in the test with A549 NSCLC, with HOP-62 NSCLC, in the test with UO-31 renal and in the test on NCI-H226 lung was greater than 100 µM in each case. The TGI in the test on RPMI-8226 leukemia and with NCI-H460 lung was greater than 100 µM each time.
`NCCCSCC(=O)O`: the TGI in the test with COLO 205 colon, in the test with UACC-257 melanoma, in the test with A549 NSCLC, with K-562 leukemia, in the test on UO-31 renal and in the test on NCI-H226 lung was greater than 100 µM each time. Moreover, the TGI in the test on RPMI-8226 leukemia was greater than 100 µM.
Take `CCC1(O)CC(c2ccccc2)N(C)C(c2ccccc2)C1` (stereo unspecified): the TGI in the test on COLO 205 colon, with UACC-257 melanoma, in the test with A549 NSCLC, with HOP-62 NSCLC, in the test with K-562 leukemia and with UO-31 renal was greater than 100 µM throughout. The TGI with NCI-H226 lung and with NCI-H460 lung was greater than 100 µM each time.
Turning to `O=C(c1ccccc1)C(c1ccccc1)C1(O)C(=O)Nc2ccc(Br)cc21` (stereo unspecified), the TGI was greater than 100 µM in the test on COLO 205 colon; 53.8 µM in the test on UACC-257 melanoma; greater than 100 µM with A549 NSCLC; greater than 100 µM in the test on HOP-62 NSCLC; 80.8 µM in the test on K-562 leukemia; greater than 100 µM in the test with UO-31 renal. The figures for the TGI in the test with NCI-H226 lung, in the test on RPMI-8226 leukemia and with NCI-H460 lung were greater than 100 µM, 98.9 µM and greater than 100 µM, respectively.
For the molecule `O=C1C2Cc3ccccc3CN2C(=O)N1CCN1CCOCC1` (stereo unspecified), the TGI in the test on COLO 205 colon, in the test on A549 NSCLC, in the test with HOP-62 NSCLC, with K-562 leukemia, with UO-31 renal and in the test on NCI-H226 lung was greater than 100 µM each time. Besides, the TGI with RPMI-8226 leukemia and in the test on NCI-H460 lung was greater than 100 µM throughout.
